Source: patent US20240270762A1, “PENICILLIN-BINDING PROTEIN INHIBITORS” (priority 2021, published 2024)
In brackets after ≈: the same amount, converted by molar mass. Read-outs that look alike come from different tables or passages of the source.

Key:
[1] = biological target: T1, PBP3 from Escherichia coli (K-12) (Escherichia coli, UniProt P0AD68); assay: Bocillin-FL fluorescence polarization competition binding, E. coli PBP3
T1 construct: made in house
Summary of the method: (§1)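 Purified PBPs pre-incubated with inhibitor (E. coli PBP3 1.5 μM, 30 min; P. aeruginosa PBP3 0.75 μM, A. baumannii PBP1a 1 μM and PBP3 0.2 μM, 15 min), then Bocillin-FL 0.1 μM (0.05 μM for PBP1a) added; FP read up to 60 min. EC50 = concentration halving bound Bocillin-FL.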

[2] = system: N. gonorrhoeae ATCC 49226; assay: Liquid broth MIC in Fastidious broth; conditions: Neisseria gonorrhoeae
N. gonorrhoeae WHO G = assay: Liquid broth MIC in Fastidious broth; conditions: Neisseria gonorrhoeae
N. gonorrhoeae WHO Z = assay: Liquid broth MIC in Fastidious broth; conditions: Neisseria gonorrhoeae
P. aeruginosa CDC-0054 = assay: microbe, parasite or virus in culture; type: cell-based; conditions: Pseudomonas aeruginosa, CDC0054, read-out: Minimum inhibitory concentration, P. aeruginosa CDC-0054
[3] = biological target: T2, PBP3 from Pseudomonas aeruginosa (PAO1) (Pseudomonas aeruginosa, UniProt G3XD46); assay: Bocillin-FL fluorescence polarization competition binding, P. aeruginosa PBP3; conditions: Binding affinity to P. aeruginosa PBP3; fluorescence polarization competition binding assay using Bocillin-FL; read-out: P. aeruginosa PBP3 Potency
T2 construct: made in house
Summary of the method: as §1

A. baumannii CDC-0033 = assay: microbe, parasite or virus in culture; type: cell-based; conditions: Acinetobacter baumannii, CDC0033, read-out: MIC, A. baumannii CDC-0033
N. gonorrhoeae FA1090 = assay: Liquid broth MIC in Fastidious broth; conditions: Neisseria gonorrhoeae
N. gonorrhoeae MS11 = assay: Liquid broth MIC in Fastidious broth; conditions: Neisseria gonorrhoeae
N. gonorrhoeae WHO M = assay: Liquid broth MIC in Fastidious broth; conditions: Neisseria gonorrhoeae
P. aeruginosa CDC-0095 = assay: microbe, parasite or virus in culture; type: cell-based; conditions: Pseudomonas aeruginosa, CDC0095, read-out: Minimum inhibitory concentration, P. aeruginosa CDC-0095
N. gonorrhoeae WHO K = assay: Liquid broth MIC in Fastidious broth; conditions: Neisseria gonorrhoeae
[4] = ATCC49226, read-out: Minimum Inhibitory Concentration (MIC), N. gonorrhoeae ATCC 49226
[5] = read-out: Minimum Inhibitory Concentration (MIC), N. gonorrhoeae WHO G
[6] = read-out: Minimum Inhibitory Concentration (MIC), N. gonorrhoeae WHO Z
[7] = FA1090, read-out: Minimum Inhibitory Concentration (MIC), N. gonorrhoeae FA 1090
[8] = MS11, read-out: Minimum Inhibitory Concentration (MIC), N. gonorrhoeae MS11
[9] = read-out: Minimum Inhibitory Concentration (MIC), N. gonorrhoeae WHO M
[10] = read-out: Minimum Inhibitory Concentration (MIC), N. gonorrhoeae WHO K

T2 sequence (G3XD46 whole entry): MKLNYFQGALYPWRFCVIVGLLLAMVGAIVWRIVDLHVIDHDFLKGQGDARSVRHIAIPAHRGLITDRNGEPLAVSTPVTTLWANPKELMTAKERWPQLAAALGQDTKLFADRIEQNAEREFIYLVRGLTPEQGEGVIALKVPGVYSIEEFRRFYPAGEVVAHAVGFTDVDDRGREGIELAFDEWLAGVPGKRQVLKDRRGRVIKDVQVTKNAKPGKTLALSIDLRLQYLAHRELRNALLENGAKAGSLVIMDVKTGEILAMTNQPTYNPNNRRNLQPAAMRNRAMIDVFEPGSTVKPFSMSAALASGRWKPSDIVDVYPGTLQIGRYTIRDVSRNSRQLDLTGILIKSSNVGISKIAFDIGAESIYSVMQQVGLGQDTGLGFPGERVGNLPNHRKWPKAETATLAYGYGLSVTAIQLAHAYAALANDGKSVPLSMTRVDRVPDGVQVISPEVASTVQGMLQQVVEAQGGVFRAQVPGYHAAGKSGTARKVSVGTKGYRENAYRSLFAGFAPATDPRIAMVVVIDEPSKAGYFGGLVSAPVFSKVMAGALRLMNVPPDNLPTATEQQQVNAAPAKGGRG
T1 sequence (P0AD68 1-577): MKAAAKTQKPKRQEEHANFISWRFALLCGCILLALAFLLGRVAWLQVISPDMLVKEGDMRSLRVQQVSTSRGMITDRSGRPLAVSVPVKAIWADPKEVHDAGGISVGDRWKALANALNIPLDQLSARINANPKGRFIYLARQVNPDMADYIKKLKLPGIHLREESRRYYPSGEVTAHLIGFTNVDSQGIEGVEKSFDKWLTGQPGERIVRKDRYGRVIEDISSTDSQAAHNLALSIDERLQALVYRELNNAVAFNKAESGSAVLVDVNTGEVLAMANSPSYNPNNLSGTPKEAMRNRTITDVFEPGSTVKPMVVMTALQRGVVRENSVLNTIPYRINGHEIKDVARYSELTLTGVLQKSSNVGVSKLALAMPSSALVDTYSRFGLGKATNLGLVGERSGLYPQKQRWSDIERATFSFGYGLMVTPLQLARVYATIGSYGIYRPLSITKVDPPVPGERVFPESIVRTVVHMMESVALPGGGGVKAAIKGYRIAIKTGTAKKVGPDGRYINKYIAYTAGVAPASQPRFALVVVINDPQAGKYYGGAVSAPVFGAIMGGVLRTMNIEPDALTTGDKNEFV

| SMILES | EC50 [1] [µM] | MIC [2, 4] [µg/mL] | MIC (N. gonorrhoeae WHO G; [5]) [µg/mL] | MIC (N. gonorrhoeae WHO Z; [6]) [µg/mL] | MIC (P. aeruginosa CDC-0054) [µg/mL] | IC50 [3] [µM] | MIC (A. baumannii CDC-0033) [µg/mL] | MIC (N. gonorrhoeae FA1090; [7]) [µg/mL] | MIC (N. gonorrhoeae MS11; [8]) [µg/mL] | MIC (N. gonorrhoeae WHO M; [9]) [µg/mL] | MIC (P. aeruginosa CDC-0095) [µg/mL] | MIC (N. gonorrhoeae WHO K; [10]) [µg/mL] | MIC ([2]; ATCC49226, read-out: Minimum Inhibitory Concentration, ATCC 49226) [µg/mL] | MIC (N. gonorrhoeae WHO G; read-out: Minimum Inhibitory Concentration, WHO G) [µg/mL] | MIC (N. gonorrhoeae WHO Z; read-out: Minimum Inhibitory Concentration, WHO Z) [µg/mL] | MIC (N. gonorrhoeae FA1090; FA1090, read-out: Minimum Inhibitory Concentration, FA 1090) [µg/mL] | MIC (N. gonorrhoeae MS11; MS11, read-out: Minimum Inhibitory Concentration, MS11) [µg/mL] | MIC (N. gonorrhoeae WHO M; read-out: Minimum Inhibitory Concentration, WHO M) [µg/mL] | MIC (N. gonorrhoeae WHO K; read-out: Minimum Inhibitory Concentration, WHO K) [µg/mL] |
| --- | --- | --- | --- | --- | --- | --- | --- | --- | --- | --- | --- | --- | --- | --- | --- | --- | --- | --- | --- |
| O=C(NCCCN1CCN(C(=O)NC(C(=O)N[C@H]2Cc3ccc(F)c(C(=O)O)c3OB2O)c2cc(F)c(O)c(O)c2Cl)C(=O)C1=O)c1ccncc1 (stereo partly drawn) [Example 205, (3R)-3-(2-(2-chloro-5-fluoro-3,4-dihydroxyphenyl)-2-(4-(3-(isonicotinamido)propyl)-2,3-dioxopiperazine-1-carboxamido)acetamido)-7-fluoro-2-hydroxy-3,4-dihydro-2H-benzo[e][1,2]oxaborinine-8-carboxylic acid] | < 10 | 16 to 32 (≈ 21.5 to 43 µM) | 4 to 8 (≈ 5.37 to 10.7 µM) | 16 to 32 (≈ 21.5 to 43 µM) | < 1 | < 10 | 2 to 4 (≈ 2.69 to 5.37 µM) | 1 to 2 (≈ 1.34 to 2.69 µM) | 4 to 8 (≈ 5.37 to 10.7 µM) | 4 to 8 (≈ 5.37 to 10.7 µM) | < 1 | > 64 | – | – | – | – | – | – | – |
| O=C(NCCN1CCN(C(=O)NC(C(=O)N[C@H]2Cc3ccc(F)c(C(=O)O)c3OB2O)c2cc(F)c(O)c(O)c2Cl)C1=O)c1cccc(O)c1 (stereo partly drawn) [Example 244, (3R)-3-(2-(2-chloro-5-fluoro-3,4-dihydroxyphenyl)-2-(3-(2-(3-hydroxybenzamido)ethyl)-2-oxoimidazolidine-1-carboxamido)acetamido)-7-fluoro-2-hydroxy-3,4-dihydro-2H-benzo[e][1,2]oxaborinine-8-carboxylic acid] | 10 to 50 | > 64 | 16 to 32 (≈ 22.3 to 44.6 µM) | > 64 | 2 to 4 (≈ 2.79 to 5.57 µM) | < 10 | 2 to 4 (≈ 2.79 to 5.57 µM) | 4 to 8 (≈ 5.57 to 11.1 µM) | > 64 | 16 to 32 (≈ 22.3 to 44.6 µM) | 32 to 64 (≈ 44.6 to 89.2 µM) | > 64 | – | – | – | – | – | – | – |
| O=C(NCCN1CCN(C(=O)NC(C(=O)N[C@H]2Cc3ccc(F)c(C(=O)O)c3OB2O)c2cc(F)c(O)c(O)c2Cl)C1=O)Nc1ccncc1 (stereo partly drawn) [Example 250, (3R)-3-(2-(2-chloro-5-fluoro-3,4-dihydroxyphenyl)-2-(2-oxo-3-(2-(3-(pyridin-4-yl)ureido)ethyl)imidazolidine-1-carboxamido)acetamido)-7-fluoro-2-hydroxy-3,4-dihydro-2H-benzo[e][1,2]oxaborinine-8-carboxylic acid] | < 10 | – | – | – | 8 to 16 (≈ 11.1 to 22.3 µM) | < 10 | 2 to 4 (≈ 2.79 to 5.57 µM) | – | – | – | 32 to 64 (≈ 44.6 to 89.2 µM) | – | > 64 | > 64 | > 64 | 4 to 8 (≈ 5.57 to 11.1 µM) | 16 to 32 (≈ 22.3 to 44.6 µM) | 16 to 32 (≈ 22.3 to 44.6 µM) | > 64 |
| O=C(NCCN1CCN(C(=O)N[C@@H](C(=O)N[C@H]2Cc3ccc(F)c(C(=O)O)c3OB2O)c2cc(F)c(O)c(O)c2Cl)C(=O)C1=O)Nc1cccnc1 [Example 222, (R)-3-((R)-2-(2-chloro-5-fluoro-3,4-dihydroxyphenyl)-2-(2,3-dioxo-4-(2-(3-(pyridin-3-yl)ureido)ethyl)piperazine-1-carboxamido)acetamido)-7-fluoro-2-hydroxy-3,4-dihydro-2H-benzo[e][1,2]oxaborinine-8-carboxylic acid] | < 10 | 16 to 32 (≈ 21.5 to 42.9 µM) | 4 to 8 (≈ 5.36 to 10.7 µM) | > 64 | 2 to 4 (≈ 2.68 to 5.36 µM) | < 10 | 2 to 4 (≈ 2.68 to 5.36 µM) | 1 to 2 (≈ 1.34 to 2.68 µM) | 16 to 32 (≈ 21.5 to 42.9 µM) | 4 to 8 (≈ 5.36 to 10.7 µM) | 8 to 16 (≈ 10.7 to 21.5 µM) | > 64 | – | – | – | – | – | – | – |
| CN(CCN1CCN(C(=O)N[C@@H](C(=O)N[C@H]2Cc3ccc(F)c(C(=O)O)c3OB2O)c2cc(F)c(O)c(O)c2Cl)C(=O)C1=O)Cc1nccs1 [Example 200, (R)-3-((R)-2-(2-chloro-5-fluoro-3,4-dihydroxyphenyl)-2-(4-(2-(methyl(thiazol-2-ylmethyl)amino)ethyl)-2,3-dioxopiperazine-1-carboxamido)acetamido)-7-fluoro-2-hydroxy-3,4-dihydro-2H-benzo[e][1,2]oxaborinine-8-carboxylic acid] | 10 to 50 | 4 to 8 (≈ 5.43 to 10.9 µM) | 4 to 8 (≈ 5.43 to 10.9 µM) | 16 to 32 (≈ 21.7 to 43.4 µM) | < 1 | < 10 | 2 to 4 (≈ 2.71 to 5.43 µM) | 1 to 2 (≈ 1.36 to 2.71 µM) | 16 to 32 (≈ 21.7 to 43.4 µM) | 4 to 8 (≈ 5.43 to 10.9 µM) | < 1 | 16 to 32 (≈ 21.7 to 43.4 µM) | – | – | – | – | – | – | – |
